The subject of test [1] is Entamoeba histolytica. The test is described as follows: (§1) Lowest active dose which cured rats with Entamoeba histolytica cecal infection was measured. It counts as functional, organism-based.
Test [2] has as its system Entamoeba histolytica. Kind of test: Lowest active dose which cured hamsters with Entamoeba histolytica hepatic infection was measured. The class given is functional.
The subject of test [3] is Entamoeba histolytica. The description is as §1. It counts as functional.
Another test has as its system Cricetinae gen. sp. Kind of test: Lowest active dose which cured the hamsters with Entamoeba histolytica hepatic infection was measured; IA means inactive. The class given is functional, organism-based. Particulars: Cricetulus griseus.

The text below walks through data of ChEMBL document CHEMBL1121391, “Antiamebic amidines and sulfonamides of 5- and 6-amino-2,3-bis(4-alkyl-1-piperazinyl)quinoxalines” (1980).

The source made the active and inactive calls. The rule behind the calls is not given here.

In the case of `CCCN1CCN(c2nc3ccc(N)cc3nc2N2CCN(CCC)CC2)CC1`, in the test with Entamoeba histolytica [1], the Dose entry was “inactive”.
As for `Cc1ccc(S(=O)(=O)Nc2ccc3nc(N4CCN(C)CC4)c(N4CCN(C)CC4)nc3c2)cc1`, the Dose worked out at 100 mg/kg/day with Entamoeba histolytica [2] and 50 mg/kg/day in the test with Entamoeba histolytica [3].
Turning to `O=[N+]([O-])c1cncn1CCN1CCOCC1` [NIMORAZOLE], the Dose stood at 100 mg/kg/day with Entamoeba histolytica [2] and 20 mg/kg/day in the test on Entamoeba histolytica [3].
`CC/C(=N\c1ccc2nc(N3CCN(C)CC3)c(N3CCN(C)CC3)nc2c1)N(CC)CC`: the Dose result in the test with Entamoeba histolytica [1] is “inactive”.
Turning to `CN1CCN(c2nc3ccc(N)cc3nc2N2CCN(C)CC2)CC1`, the Dose result in the test on Cricetinae gen. sp. is “inactive”. In addition, the Dose in the test on Entamoeba histolytica [3] amounted to 50 mg/kg/day.
Take `CN(C)CCCN1CCN(/C=N/c2ccc3nc(N4CCN(C)CC4)c(N4CCN(C)CC4)nc3c2)CC1`: the Dose entry in the test on Entamoeba histolytica [1] is “inactive”.
On the same count and under the same terms, the same measure for `CN1CCN(c2nc3ccc(NS(=O)(=O)c4ccc(Cl)cc4)cc3nc2N2CCN(C)CC2)CC1`: “inactive”; for `C/C(=N\c1ccc2nc(N3CCN(C)CC3)c(N3CCN(C)CC3)nc2c1)N(C)C`: “inactive”.
For `CCCN1CCN(c2nc3ccc(/N=C/N(C)C)cc3nc2N2CCN(CCC)CC2)CC1`, the Dose in the test on Entamoeba histolytica [2] was 100 mg/kg/day; in the test with Entamoeba histolytica [3], 50 mg/kg/day.
Consider `CCN(/C=N/c1ccc2nc(N3CCN(C)CC3)c(N3CCN(C)CC3)nc2c1)CC`, for which the Dose entry in the test with Entamoeba histolytica [1] is “inactive”.
In the case of `C/C(=N\c1cccc2nc(N3CCN(C)CC3)c(N3CCN(C)CC3)nc12)N(C)C`, the Dose entry in the test with Entamoeba histolytica [1] is “inactive”.
The same measure, in the same setting: for `CN1CCN(/C=N/c2ccc3nc(N4CCN(C)CC4)c(N4CCN(C)CC4)nc3c2)CC1` the value was “inactive”.
Regarding `Cc1ncc([N+](=O)[O-])n1CCO` [METRONIDAZOLE], the Dose in the test on Entamoeba histolytica [2] and in the test with Entamoeba histolytica [3] was 10 mg/kg/day in each case.
Regarding `CN(C)/C=N/c1cc(Cl)cc2nc(N3CCN(C)CC3)c(N3CCN(C)CC3)nc12` (stereo in doubt; 21), the Dose result in the test with Entamoeba histolytica [1] is “inactive”.
As to `CCCN1CCN(c2nc3ccc(/N=C(\C)N(C)C)cc3nc2N2CCN(CCC)CC2)CC1`, the Dose entry with Entamoeba histolytica [1] was “inactive”.
Still for that read-out and setting: the same measure for `CCCN1CCN(c2nc3cccc(N)c3nc2N2CCN(CCC)CC2)CC1`: “inactive”; for `CN1CCN(c2nc3ccc(/N=C/N4CCCCC4)cc3nc2N2CCN(C)CC2)CC1`: “inactive”; for `CCCN1CCN(c2nc3ccc(NS(=O)(=O)c4ccc(C)cc4)cc3nc2N2CCN(CCC)CC2)CC1`: “inactive”.
On to `CN(C)/C=N/c1cccc2nc(N3CCN(C)CC3)c(N3CCN(C)CC3)nc12`, for which the figures for the Dose with Entamoeba histolytica [2] and with Entamoeba histolytica [3] were 50 mg/kg/day and 10 mg/kg/day, respectively.
Regarding `CCN(CC)/C(C)=N/c1cc(Cl)cc2nc(N3CCN(C)CC3)c(N3CCN(C)CC3)nc12`, the Dose entry in the test on Entamoeba histolytica [1] was “inactive”.
`CN1CCN(c2nc3cc(Cl)cc(N)c3nc2N2CCN(C)CC2)CC1`: the Dose entry with Entamoeba histolytica [1] is “inactive”.
Take `CN1CCN(c2nc3cc(Cl)cc(NS(=O)(=O)c4ccc(Cl)cc4)c3nc2N2CCN(C)CC2)CC1`: in the test on Entamoeba histolytica [1], the Dose result is “inactive”.
Turning to `CN(C)/C=N/c1ccc2nc(N3CCN(C)CC3)c(N3CCN(C)CC3)nc2c1`, the results for the Dose in the test with Entamoeba histolytica [2] and in the test on Entamoeba histolytica [3] were 50 mg/kg/day and 20 mg/kg/day, respectively.
Turning to `CC/C(=N\c1cccc2nc(N3CCN(C)CC3)c(N3CCN(C)CC3)nc12)N(C)C`, in the test on Entamoeba histolytica [1], the Dose result is “inactive”.
On to `CN1CCN(c2nc3ccc(NS(=O)(=O)c4cccc(C(F)(F)F)c4)cc3nc2N2CCN(C)CC2)CC1`, for which the Dose result with Entamoeba histolytica [1] was “inactive”.
Regarding `CN(C)CCCc1ccc(/C=N/c2ccc3nc(N4CCN(C)CC4)c(N4CCN(C)CC4)nc3c2)cc1`, the Dose in the test on Entamoeba histolytica [3] turned out to be 50 mg/kg/day.
Turning to `CC/C(=N\c1cc(Cl)cc2nc(N3CCN(C)CC3)c(N3CCN(C)CC3)nc12)N(C)C`, in the test with Entamoeba histolytica [1], the Dose result is “inactive”.
Regarding `Cc1ccc(S(=O)(=O)Nc2cccc3nc(N4CCN(C)CC4)c(N4CCN(C)CC4)nc23)cc1`, the Dose result with Entamoeba histolytica [1] is “inactive”.
`CN1CCN(c2nc3cccc(N)c3nc2N2CCN(C)CC2)CC1`: the Dose result in the test on Cricetinae gen. sp. was “inactive”. Also, the Dose in the test with Entamoeba histolytica [3] was 50 mg/kg/day.
Take `CN(C)/C=N/c1cc(Cl)cc2nc(N3CCN(C)CC3)c(N3CCN(C)CC3)nc12` (stereo in doubt; 7): the Dose entry in the test with Entamoeba histolytica [1] is “inactive”.
